Experimental data reported in ChEMBL document CHEMBL2029312, “The antibacterial activity of 4,4'-bipyridinium amphiphiles with conventional, bicephalic and gemini architectures” (Bioorg Med Chem Lett, 2012).

Legend:
Staphylococcus aureus [1] = experiment: Antibacterial activity against Staphylococcus aureus subsp. aureus ATCC 29213 after 72 hrs by broth microdilution method; format: functional
Enterococcus faecalis [2] = experiment: Antibacterial activity against Enterococcus faecalis ATCC 29212 after 72 hrs by broth microdilution method; format: functional
Pseudomonas aeruginosa [3] = experiment: Antibacterial activity against Pseudomonas aeruginosa Boston 41501 ATCC 27853 after 72 hrs by broth microdilution method; format: functional
Escherichia coli [4] = experiment: Antibacterial activity against Escherichia coli ATCC 25922 after 72 hrs by broth microdilution method; format: functional
[5] = Solubility of the compound in water; format: physicochemical; conditions: buffer
Enterococcus faecalis [6] = experiment: Ratio of benzalkonium chloride MIC to compound MIC for Enterococcus faecalis ATCC 29212; format: functional
Staphylococcus aureus [7] = experiment: Ratio of benzalkonium chloride MIC to compound MIC for Staphylococcus aureus subsp. aureus ATCC 29213; format: functional
Pseudomonas aeruginosa [8] = experiment: Ratio of benzalkonium chloride MIC to compound MIC for Pseudomonas aeruginosa Boston 41501 ATCC 27853; format: functional
Escherichia coli [9] = experiment: Ratio of benzalkonium chloride MIC to compound MIC for Escherichia coli ATCC 25922; format: functional
[10] = Staphylococcus aureus, ATCC 29213, 72 h, read-out: MIC
[11] = Enterococcus faecalis, ATCC 29212, 72 h, read-out: MIC
[12] = Pseudomonas aeruginosa, Boston 41501 ATCC 27853, 72 h, read-out: MIC
[13] = Escherichia coli, ATCC 25922, 72 h, read-out: MIC

SMILES	MIC (Staphylococcus aureus [1]; [10]) [µM]	MIC (Enterococcus faecalis [2]; [11]) [µM]	MIC (Pseudomonas aeruginosa [3]; [12]) [µM]	MIC (Escherichia coli [4]; [13]) [µM]	solubility [5]	MIC (Staphylococcus aureus [1]) [µM]	MIC (Enterococcus faecalis [2]) [µM]	MIC (Pseudomonas aeruginosa [3]) [µM]	MIC (Escherichia coli [4]) [µM]	Ratio (Enterococcus faecalis [6])	Ratio (Staphylococcus aureus [7])	Ratio (Pseudomonas aeruginosa [8])	Ratio (Escherichia coli [9])
CCCCCCCCCCCC[n+]1ccc(-c2ccncc2)cc1	16	63	> 250	63	–	–	–	–	–	–	–	–	–
CCCCCCCCCCCCCCCCCC[n+]1ccc(-c2cc[n+](CCCC)cc2)cc1	8	31	125	31	–	–	–	–	–	–	–	–	–
CCCCCCCCCCCCCC[n+]1ccc(-c2cc[n+](CCCCCCCC)cc2)cc1	2	2	16	2	–	–	–	–	–	–	–	–	–
CCCCCCCCCCCCCCCCCCCC[n+]1ccc(-c2cc[n+](C)cc2)cc1.[Br-].[I-]	16	31	> 250	125	Insoluble	–	–	–	–	–	–	–	–
CCCCCCCCCCCCCCCCCC[n+]1ccc(-c2ccncc2)cc1.[Br-]	16	31	> 250	> 250	Insoluble	–	–	–	–	–	–	–	–
CCCCCCCCCC[n+]1ccc(-c2cc[n+](CCCCCCCCCC)cc2)cc1.[I-].[I-]	–	–	–	–	Insoluble	2	4	63	8	–	–	–	–
CCCCCCCCCCCCCCCCCCCC[n+]1ccc(-c2ccncc2)cc1.[Br-]	> 250	> 250	> 250	> 250	Insoluble	–	–	–	–	–	–	–	–
CCCCCCCCCCCC[n+]1ccc(-c2cc[n+](CC)cc2)cc1	63	250	> 250	250	–	–	–	–	–	–	–	–	–
CCCCCCCCCCCCCCCC[n+]1ccc(-c2cc[n+](CCCCCCCCCCCCCCCC)cc2)cc1.[I-].[I-]	–	–	–	–	Insoluble	>250	>250	>250	>250	–	–	–	–
CCCCCCCCCCCCCCCCCCCC[n+]1ccc(-c2cc[n+](CC)cc2)cc1	16	31	> 250	125	–	–	–	–	–	–	–	–	–
CCCCCCCCCCCC[n+]1ccc(-c2cc[n+](CCCCCCCCCCCC)cc2)cc1.[I-].[I-]	–	–	–	–	Insoluble	8	16	31	16	–	–	–	–
CCCCCCCCCC[n+]1ccc(-c2cc[n+](CCCCCCCCCC)cc2)cc1	2	4	63	8	–	–	–	–	–	–	–	–	–
CCCCCCCCCCCCCCCC[n+]1ccc(-c2ccncc2)cc1.[Br-]	8	16	> 250	63	Insoluble	–	–	–	–	–	–	–	–
CCCCCCCCCCCC[n+]1ccc(-c2cc[n+](CCCCCCCCCCCC)cc2)cc1.[Cl-].[Cl-]	–	–	–	–	–	2	4	16	4	–	–	–	–
CCCCCCCCCCCCCC[n+]1ccc(-c2cc[n+](CCCCCCCCCCCCCC)cc2)cc1.[Br-].[Br-]	16	31	> 250	250	Insoluble	–	–	–	–	–	–	–	–
CCCCCCCCCCCCCCCC[n+]1ccc(-c2cc[n+](CCCCCCCCCCCCCCCC)cc2)cc1.[Br-].[Br-]	250	> 250	> 250	> 250	Insoluble	–	–	–	–	–	–	–	–
CCCCCCCCCCCCCC[n+]1ccc(-c2cc[n+](CC)cc2)cc1	8	31	250	63	–	–	–	–	–	–	–	–	–
CCCCCCCCCCCCCCCCCC[n+]1ccc(-c2cc[n+](CC)cc2)cc1	8	31	125	31	–	–	–	–	–	–	–	–	–

SMILES	MIC (Staphylococcus aureus [1]; [10]) [µM]	MIC (Enterococcus faecalis [2]; [11]) [µM]	MIC (Pseudomonas aeruginosa [3]; [12]) [µM]	MIC (Escherichia coli [4]; [13]) [µM]	solubility [5]	MIC (Staphylococcus aureus [1]) [µM]	MIC (Enterococcus faecalis [2]) [µM]	MIC (Pseudomonas aeruginosa [3]) [µM]	MIC (Escherichia coli [4]) [µM]	Ratio (Enterococcus faecalis [6])	Ratio (Staphylococcus aureus [7])	Ratio (Pseudomonas aeruginosa [8])	Ratio (Escherichia coli [9])
C[n+]1ccc(-c2cc[n+](C)cc2)cc1	> 250	> 250	> 250	> 250	–	–	–	–	–	–	–	–	–
CCCCCCCCCCCCCCCC[n+]1ccc(-c2cc[n+](CCCCCCCCCCCCCCCC)cc2)cc1.[Cl-].[Cl-]	–	–	–	–	Insoluble	>250	>250	>250	>250	–	–	–	–
CCCCCCCCCCC[n+]1ccc(-c2cc[n+](CCCCCCCCCCC)cc2)cc1.[I-].[I-]	–	–	–	–	Insoluble	4	8	63	8	–	–	–	–
CCCCCCCCCCCCCC[n+]1ccc(-c2ccncc2)cc1	8	16	125	31	–	–	–	–	–	–	–	–	–
CCCCCCCCCCCCCC[n+]1ccc(-c2cc[n+](C)cc2)cc1.[Br-].[I-]	4	31	125	63	Insoluble	–	–	–	–	–	–	–	–
CCCCCCCCCCCCCCCCCC[n+]1ccc(-c2cc[n+](CCCCCCCCCCCCCCCCCC)cc2)cc1.[Br-].[Br-]	> 250	> 250	> 250	> 250	Insoluble	–	–	–	–	–	–	–	–
CCCCCCCCCCCCCCCC[n+]1ccc(-c2cc[n+](CC)cc2)cc1.[Br-].[Br-]	16	63	250	63	Insoluble	–	–	–	–	–	–	–	–
CCCCCCCCCCCC[n+]1ccc(-c2cc[n+](CCCCCCCCCC)cc2)cc1	2	2	8	2	–	–	–	–	–	–	–	–	–
CCCCCCCCCCCCCCCC[n+]1ccc(-c2cc[n+](C)cc2)cc1.[Br-].[I-]	4	31	125	31	Insoluble	–	–	–	–	–	–	–	–
CCCCCCCCCCCCCCCCCC[n+]1ccc(-c2cc[n+](C)cc2)cc1.[Br-].[I-]	8	31	63	31	Insoluble	–	–	–	–	–	–	–	–
CCCCCCCCCCC[n+]1ccc(-c2cc[n+](CCCCCCCCCCC)cc2)cc1.[Cl-].[Cl-]	–	–	–	–	–	2	2	8	2	–	–	–	–
CCCCCCCC[n+]1ccc(-c2cc[n+](CCCCCCCC)cc2)cc1	125	250	> 250	> 250	–	–	–	–	–	–	–	–	–
CCCCCCCCCCC[n+]1ccc(-c2cc[n+](CCCCCCCCCCC)cc2)cc1.[Br-].[Br-]	2	–	–	–	–	–	2	16	2	4	4	4	4
CCCCCCCCCCCC[n+]1ccc(-c2cc[n+](CCCCCCCCCCCC)cc2)cc1.[Br-].[Br-]	–	–	31	–	–	2	4	–	4	–	–	–	–
CCCCCCCCCC[n+]1ccc(-c2cc[n+](CCCCCCCCCC)cc2)cc1.[Cl-].[Cl-]	–	–	–	–	–	2	4	63	8	–	–	–	–
CCCCCCCCCCCCC[n+]1ccc(-c2cc[n+](CCCCCCCCCCCCC)cc2)cc1.[Br-].[Br-]	8	8	250	16	Insoluble	–	–	–	–	–	–	–	–
CCCCCCCCCCCC[n+]1ccc(-c2cc[n+](C)cc2)cc1.[Br-].[I-]	31	63	250	125	Insoluble	–	–	–	–	–	–	–	–
CCCCCCCCCCCCCCCC[n+]1ccc(-c2cc[n+](CCCCCC)cc2)cc1	2	8	31	8	–	–	–	–	–	–	–	–	–
